# Source: US10266497B2 (ABIDE THERAPEUTICS, INC., priority 2017, dated 2019)
# How the values were obtained:
# [1] = target: T1, MAGL (Homo sapiens, UniProt Q99685); assay: In vitro competitive activity-based protein profiling, MAGL, human; conditions: for inhibition at 1 µM: read-out: MAGL % inh. 1 μM (human); for inhibition at 10 µM: read-out: MAGL % inh. (human) at 10 uM
# T1 sequence (Q99685 1-303): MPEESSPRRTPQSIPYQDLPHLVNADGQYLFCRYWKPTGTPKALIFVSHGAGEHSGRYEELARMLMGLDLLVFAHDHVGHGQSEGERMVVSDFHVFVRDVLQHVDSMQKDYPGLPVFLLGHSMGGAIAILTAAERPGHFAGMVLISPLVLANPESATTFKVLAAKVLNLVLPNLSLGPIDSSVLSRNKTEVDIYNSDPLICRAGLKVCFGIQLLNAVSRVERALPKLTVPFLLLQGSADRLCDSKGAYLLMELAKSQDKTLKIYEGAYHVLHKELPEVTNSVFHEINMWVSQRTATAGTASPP
# [2] = target: T2, MAGL (Mus musculus, UniProt O35678); assay: In vitro competitive activity-based protein profiling, MAGL, mouse; conditions: read-out: MAGL % inh. 1 μM (mouse)
# T2 sequence (O35678 1-303): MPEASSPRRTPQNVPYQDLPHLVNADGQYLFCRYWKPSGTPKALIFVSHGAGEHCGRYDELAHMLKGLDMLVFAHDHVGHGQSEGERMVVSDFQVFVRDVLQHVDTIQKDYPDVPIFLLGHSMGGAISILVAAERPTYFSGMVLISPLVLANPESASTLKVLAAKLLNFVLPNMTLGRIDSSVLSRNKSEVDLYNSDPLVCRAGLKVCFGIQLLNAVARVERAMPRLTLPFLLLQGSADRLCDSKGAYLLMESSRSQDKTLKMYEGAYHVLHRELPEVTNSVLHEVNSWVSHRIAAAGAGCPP
SMILES,inhibition at 1 µM [1] [%],inhibition at 1 µM [2] [%],inhibition at 10 µM [1] [%]
"CCOc1cc(CN2CCC3(CCN(C(=O)n4ccc(C(=O)O)n4)CC3)C2)ccc1Cl [Example 21, 1-(2-(4-chloro-3-ethoxybenzyl)-2,8-diazaspiro[4.5]decane-8-carbonyl)-1H-pyrazole-3-carboxylic acid]",25 to 50,25 to 50,–
"NC(=O)c1ccn(C(=O)N2CCC3(CCCN3Cc3cc4ccc(C(F)(F)F)cc4s3)CC2)n1 [Example 22, 1-(1-((6-(Trifluoromethyl)benzo[b]thiophen-2-yl)methyl)-1,8-diazaspiro[4.5]decane-8-carbonyl)-1H-pyrazole-3-carboxamide]",> 75,> 75,–
"O=C(O)c1ccn(C(=O)N2CCC(OCc3cc(Cl)cc(Oc4ccc(Cl)cc4)c3)CC2)n1 [Example 27, 1-(4-((3-Chloro-5-(4-chlorophenoxy)benzyl)oxy)piperidine-1-carbonyl)-1H-pyrazole-3-carboxylic Acid]",> 75,> 75,–
"C[C@@H]1CN(Cc2cccc(OCC(C)(C)O)c2Cl)CCN1C(=O)n1ccc(C(N)=O)n1 [Example 216, (R)-1-(4-(2-chloro-3-(2-hydroxy-2-methylpropoxy)benzyl)-2-methylpiperazine-1-carbonyl)-1H-pyrazole-3-carboxamide]",> 75,> 75,–
"O=C(O)c1ccn(C(=O)N2CCC3(CCN(Cc4cc(Cl)ccc4C(F)(F)F)CC3)CC2)n1 [Example 217, 1-(9-(5-chloro-2-(trifluoromethyl)benzyl)-3,9-diazaspiro[5.5]undecane-3-carbonyl)-1H-pyrazole-3-carboxylic acid]",> 75,> 75,–
"O=C(O)c1ccn(C(=O)N2C[C@H]3C[C@H](NCc4cccc(-c5ccccc5)c4)C[C@H]3C2)n1 [Example 273, 1-(trans-5-(([1,1′-biphenyl]-3-ylmethyl)amino)octahydrocyclopenta [c]pyrrole-2-carbonyl)-1H-pyrazole-3-carboxylic acid]",–,–,> 75
"O=C(O)c1ccn(C(=O)N2C[C@H]3C[C@H](OCc4cccc(-c5cscn5)c4Cl)C[C@H]3C2)n1 [Example 447, 1-(trans-5-((2-chloro-3-(thiazol-4-yl)benzyl)oxy)octa-hydrocyclopenta[c]pyrrole-2-carbonyl)-1H-pyrazole-3-carboxylic acid]",–,–,> 75

# Continued, values first:
inhibition at 1 µM [1] [%],inhibition at 1 µM [2] [%],inhibition at 10 µM [1] [%],SMILES
> 75,> 75,–,"C[C@H]1C[C@@H](N(C)Cc2cccc(C(F)(F)F)c2)CCN1C(=O)n1ccc(C(N)=O)n1 [Example 24, 1-((2S,4S)-2-Methyl-4-(methyl(3-(trifluoromethyl)benzyl)amino)piperidine-1-carbonyl)-1H-pyrazole-3-carboxamide]"
0 to 25,50 to 75,–,"O=C(O)c1ccn(C(=O)N2CCC3(CCN(Cc4cccc(Oc5cncnc5)c4)C3)CC2)n1 [Example 31, 1-(2-(3-(Pyrimidin-5-yloxy)benzyl)-2,8-diazaspiro[4.5]decane-8-carbonyl)-1H-pyrazole-3-carboxylic Acid]"
> 75,> 75,–,"O=C(O)c1ccn(C(=O)N2C[C@H]3C[C@H](OCc4cccc(C5CCCC5)c4)C[C@H]3C2)n1 [Example 34, 1-(trans-5-((3-Cyclopentylbenzyl)oxy)octahydrocyclopenta[c]pyrrole-2-carbonyl)-1H-pyrazole-3-carboxylic Acid]"
> 75,> 75,–,"CC(C)(O)COc1cccc(CN2CCN(C(=O)n3ccc(C(N)=O)n3)CC2)c1Cl [Example 37, 1-(4-(2-Chloro-3-(2-hydroxy-2-methylpropoxy)benzyl)piperazine-1-carbonyl)-1H-pyrazole-3-carboxamide]"
> 75,> 75,–,"CC(C)(O)COc1cccc(CN2CCN(C(=O)n3ccc(C(=O)O)n3)CC2)c1Cl [Example 213, 1-(4-(2-chloro-3-(2-hydroxy-2-methylpropoxy)benzyl)piperazine-1-carbonyl)-1H-pyrazole-3-carboxylic acid]"
